The text below walks through data of US20120077732A1, “CYCLIC PEPTIDES AND USES THEREOF” (SYDNEY WEST AREA HEALTH SERVICE, priority 2008, published 2012).

In one data set the test system is trypsin. Type of data set: in vitro ADME. Here is the method:
The effect of trypsin on C1 and CP was studied by incubating each peptide (1 μg/μl) in methanol and ammonium bicarbonate (0.1M) with 125 ng/μl of trypsin at pH 8 and 37° C. The effect of trypsin after incubation with CP and C1 was followed by mass spectrometry. […]

The subject of another data set is 2B4.11 hybridoma. The data set is described as follows: Antigen presentation assay (IL-2 produced in response to antigen). The data set is classed as cell-based.
Data set [1] in a line: Surface plasmon resonance binding to DMPC liposomes. Particulars: SPR, L1 sensor chip, 50 μM, 25° C. Here is the method:
(§1) Model membranes composed of zwitterionic and anionic phospholipids were prepared as previously described (Bender et al., 2004). Briefly, DMPC and DMPG were dissolved in dry chloroform and chloroform/methanol (2:1) respectively to give 10 mg/ml solutions. […] The solution was sonicated in an ultrasonic bath for 20 min. Eight cycles of freeze/thawing was followed by extrusion through polycarbonate filters, first 100 nm (21 times) then 50 nm pore diameter (21 times), using a Lipofast apparatus (Avestin, Ottawa, Canada) and SUVs were used immediately. SPR was carried out on a BIAcore 2000 instrument using Pioneer Sensor Chip L1 and HEPES (HBS-N, Biacore, Upssala, Sweden) as running buffer. The chip surface was cleaned with 40 mM octyl glycoside (30 μl, 10 μl/min) followed liposomes (SUV) (100 μl, 5 μl/min). 10 mM NaOH (40 μl, 10 μl/min) removed any multilamellar vesicles from the surface before injecting the lipopeptide solutions (100 μl, 5 μl/min). The dissociation stage was 1200 sec. […] All SPR experiments were run at 25° C. and all analyses were performed using the BIAevaluation software (Biacore, Uppsala, Sweden). Lipopeptide binding was expressed as the difference in signal between points before sample injection and after dissociation.

The nature of data set [2]: Surface plasmon resonance binding to DMPG liposomes. The note with it: SPR, L1 sensor chip, 50 μM, 25° C. Here is the method:
as §1
On the technique in general: In SPR one partner is held on a chip, and binding of the other changes the refractive index at the surface.

Data set [3] relates to allergic mice (OVA/OVA). The data set is described as follows: Allergic airways disease (OVA) model: inflammatory cells in BALF. On the set-up: key to Airway lymphocytes / Airway eosinophils / Airway macrophages / Airway inflammatory cells / Airway neutrophils: nc: no change; ↑: increase; ↓: decrease. The data set is classed as in vivo.
Data set [4] deals with allergic mice (OVA/OVA). The data set can be described thus: Allergic airways disease (OVA) model: local and systemic OVA-specific cytokine production. Type of data set: in vivo. Also on record: key to Spleen OVA-stimulated IL-5 / Spleen OVA-stimulated IL-13 / LN OVA-stimulated IL-5 / LNOVA stimulated IL-13: nc: no change; ↑: increase; ↓: decrease.
Data set [5] has as its system allergic mice (OVA/OVA). The data set can be described thus: Allergic airways disease (OVA) model: airways hyperreactivity to methacholine. The data set is classed as in vivo. Also on record: key to Airway Resistance / Airway Compliance: nc: no change; ↑: increase; ↓: decrease.
Setting [6] is: 200 μg s.c. during challenge, allergic mice.
Setting [7] is: 200 μg/100 μl s.c. during OVA challenge, compared to OVA/OVA alone.

No end group written: not given here.

“GLRILLLKV [CP, GLRILLLKV, reference compound]”: in the data set with trypsin, the “stability without trypsin, 3 hours (Mass spectroscopy-MS)” value is reported as “No degradation product” and the “stability without trypsin, 24 hours (MS)” value was “No degradation product”.

For LDRLDLLDLLDKVDG [C1-L], the “% Ave IL2 Production” value in the data set on 2B4.11 hybridoma (average, Tables 1-3) is 90%. Besides, in the data set on 2B4.11 hybridoma (peptide 50 μM, 0.5% DMSO, ±SD), the “IL-2 production, % of the solvent only control value” is “only minimal activity”. Further, the “binding to DMPC (zwitterionic) liposomes” value in data set [1] is recorded as “only very limited binding”. Further, in data set [2], the “binding to DMPG (anionic) liposomes” value is listed as “only very limited binding”. Further, in the data set with allergic mice (OVA/OVA) [3] (setting [6]), the “eosinophils in BALF” value is reported as “decrease” and the “total inflammatory cell counts in bronchoalveolar lavage fluid (BALF)” value is given as “significantly decreased”. In the data set with allergic mice (OVA/OVA) [3] (setting [7]), the Airway eosinophils entry is listed as “↓”, the Airway inflammatory cells result is “↓”, the Airway lymphocytes entry was “nc” and the Airway macrophages result is given as “nc”. Further, the Airway neutrophils result in the data set with allergic mice (OVA/OVA) [3] (setting [7]) was “nc”. Further, in the data set on allergic mice (OVA/OVA) [4] (setting [6]), the “locally produced (peribronchial lymph node derived) IL-5” value is on record as “no significant impact”, the “locally produced (peribronchial lymph node derived) IL-13” value is “no significant impact”, the “systemic (spleen derived) IL-5” value is “significantly decreased” and the “systemic (spleen derived) IL-13” value is listed as “no change”. In the data set on allergic mice (OVA/OVA) [4] (setting [7]), the “LN OVA-stimulated IL-5” value was “nc”, the “LNOVA stimulated IL-13” value is “nc”, the “Spleen OVA-stimulated IL-5” value was “↓” and the “Spleen OVA-stimulated IL-13” value is “nc”. Further, in the data set with allergic mice (OVA/OVA) [5] (setting [6]), the “airway resistance in response to methacholine challenge” value is “no significant effect” and the “dynamic compliance in response to methacholine challenge” value is reported as “no significant effect”. In addition, in the data set with allergic mice (OVA/OVA) [5] (setting [7]), the “Airway Compliance” value is recorded as “nc” and the “Airway Resistance” value is “nc”.
